The values that follow come from patent publication US20030161871A1, “Solubilized riboflavin” (priority 2001, published 2003).

Values after ≈ are worked out from the molar mass of the structure shown. Like-named read-outs stand apart in the source and are kept apart here.

Series [1] can be described thus: Solubility of riboflavin as a function of pH and % FMN. It counts as physicochemical. The following applies: for solubility thermodynamic: thermodynamic from solid. The source says:
The equilibrium solubility of riboflavin is approximately 70 mcg/ml (see plot below with no FMN present). Precipitation is expected to occur if riboflavin reaches a level above this (due to riboflavin in drug substance or due to degradation to riboflavin with time), and precipitation would be unacceptable for patient safety with intravenous use.
Solubility of Riboflavin as a function of pH and % FMN [formula]
At 1% FMN, up to 365 mcg/ml of riboflavin can dissolve.

Series [2] can be described thus: Solubilization of lumichrome in the FMN formulation. It counts as physicochemical.

For the molecule `Cc1cc2nc3c(=O)[nH]c(=O)nc-3n(C[C@H](O)[C@H](O)[C@H](O)CO)c2cc1C` [riboflavin], the solubility thermodynamic in series [1] (1% FMN solution, aqueous with cosolvent or surfactant or cyclodextrin, read-out: riboflavin that can dissolve (equilibrium solubility)) was ≤ 365 µg/mL; in series [1] (5% FMN solution, aqueous with cosolvent or surfactant or cyclodextrin, 5% FMN, pH 7-8, read-out: riboflavin that can dissolve (equilibrium solubility)) it was ≤ 1320 µg/mL; in series [1] (no FMN present, read-out: equilibrium solubility of riboflavin), ~70 µg/mL (≈ 186 µM). Further, the “equilibrium solubility of riboflavin” value in series [1] (no FMN present) is listed as “approximately 70 mcg/ml”.

Consider `Cc1cc2nc3[nH]c(=O)[nH]c(=O)c3nc2cc1C` [lumichrome], for which the “solubility of lumichrome in the current formulation” value in series [2] is listed as “dissolve at levels above the equilibrium solubility”.
